The values that follow come from patent US8258321B2, “Beta-lactone compounds” (Burnham Institute for Medical Research, priority 2007, dated 2012).

One assay relates to MB-MDA-231 cells. The assay can be described thus: Cell Viability Assay (MTS), MB-MDA-231. The settings on record: 3 k 231, 48 h. The class given is cell-based. On the procedure: (§1) Cell Viability Assays for Determination of Test Compound Potencies
(§2) Plates were incubated for 2 h and absorbance was assayed at 490 nm. Background levels of formazan formation were measured in medium alone. IC50 values were derived from dose-response curves.

In a further assay the test system is human fibroblast cells. The assay can be described thus: Cell Viability Assay (MTS), human fibroblast cells (HFF). The class given is cell-based. The settings on record: 48 h. On the procedure: as §1, §2
The target of another assay is T1, FAS TE (Homo sapiens, UniProt P49327).
T1 construct: The unique carboxyl terminal thioesterase domain of fatty acid synthase
The assay can be described thus: Fluorogenic Assay for Detection of FASTE Inhibition (4-MUH substrate). The class given is biochemical. As to conditions: 500 nM FAS TE, 30 min pre-incubation at 37° C. On the procedure: Fluorogenic Assay for Detection of FASTE Inhibition
The synthetic fluorogenic substrate, 4-methylumbelliferyl heptanoate (4-MUH), was purchased from Sigma (St. Louis, Mo.). The reaction mixture consisted of 500 nM FAS TE in buffer (100 mM Tris-HCl, 50 mM NaCl at pH 7.4) which was pre-incubated with 2.5 μL test compounds dissolved in DMSO at final concentrations of […] and/or 0.08-10 μM at 37° C. for 30 minutes. […] 4-MUH incubated without enzyme served as a background control. Results are the average of triplicate time points.

The mark [1] stands for this setting: Homo sapiens, Fibroblast, 3 k HFF, read-out: avg 3 k HFF IC50.
[2] abbreviates: Homo sapiens, Fibroblast, 50 k HFF, read-out: avg 50 k HFF IC50.
[3] abbreviates: 3 k HFF, read-out: avg 3 k HFF IC50.
Where [4] appears, read: 50 k HFF, read-out: avg 50 k HFF IC50.

Like-named read-outs stand apart in the source and are kept apart here. Some results are limits rather than exact numbers.

T1 sequence (P49327 2207-2511 limits assumed): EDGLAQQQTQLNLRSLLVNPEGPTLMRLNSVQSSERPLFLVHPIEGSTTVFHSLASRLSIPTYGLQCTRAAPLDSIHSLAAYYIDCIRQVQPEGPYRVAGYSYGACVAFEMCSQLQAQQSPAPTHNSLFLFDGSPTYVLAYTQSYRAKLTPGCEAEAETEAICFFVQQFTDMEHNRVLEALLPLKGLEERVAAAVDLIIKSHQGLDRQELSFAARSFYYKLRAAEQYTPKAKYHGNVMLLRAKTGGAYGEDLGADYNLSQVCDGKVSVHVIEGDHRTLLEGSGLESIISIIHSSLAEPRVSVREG

What is called IC50 is the concentration at which inhibition is half-maximal. For `C/C=C/CC[C@@H](C[C@@H]1OC(=O)[C@H]1CCCCCC)OC(=O)[C@@H](NC=O)C(C)C`, the IC50 in the assay on MB-MDA-231 cells (48 h) came out at 23 µM; in the assay with human fibroblast cells (setting [1]) it was 35 µM; with human fibroblast cells (setting [2]) it was 27.6 µM.
Regarding `C=CCC[C@H](CC1OC(=O)[C@H]1CCCCCC)OC(=O)CNC=O` (some centres unmarked) [listing 1 of 2 here], the half-maximal inhibitory concentration (IC50) in the assay on MB-MDA-231 cells (48 h), with human fibroblast cells (setting [1]) and in the assay with human fibroblast cells (setting [2]) was more than 100 µM throughout.
What is called Ki is the dissociation constant of the complex between target and ligand, obtained from inhibition or displacement. Take `C=CCC[C@H](C[C@@H]1OC(=O)[C@H]1CCCCCC)OC(=O)CNC=O`: the inhibition constant Ki at FAS TE was determined as 0.53 µM.
At FAS TE, `CCCCCCCCCCCCC[C@@H](CC1OC(=O)[C@H]1CCCCCC)OC(=O)[C@H](Cc1cnc[nH]1)NC=O` (some centres unmarked) registered a Ki of 0.17 µM. Further, the values for the half-maximal inhibitory concentration (IC50) in the assay on MB-MDA-231 cells (48 h), in the assay with human fibroblast cells (setting [1]) and with human fibroblast cells (setting [2]) were 37.1 µM, 15.8 µM and 28 µM, respectively.
As to `CCCCCCCCCCC[C@@H](C[C@@H]1OC(=O)[C@H]1CCCCCC)OC(=O)[C@H](CC(C)C)NC=O`, the IC50 with MB-MDA-231 cells (48 h) is 20.1 µM; with human fibroblast cells (setting [1]), more than 100 µM; in the assay with human fibroblast cells (setting [2]), more than 100 µM.
As to `CCCCCCCCCCC[C@@H](C[C@@H]1OC(=O)[C@H]1CCCCCC)OC(=O)CNC=O`, the figures for the half-maximal inhibitory concentration (IC50) in the assay with MB-MDA-231 cells (48 h), in the assay with human fibroblast cells (setting [1]) and in the assay on human fibroblast cells (setting [2]) were 4.8 µM, 19.9 µM and 27.6 µM, respectively.
For `CCCCCCC/C=C/CC[C@@H](C[C@@H]1OC(=O)[C@H]1CCCCCC)OC(=O)[C@H](CC(C)C)NC=O`, the IC50 in the assay with MB-MDA-231 cells (48 h) was found to be 62.5 µM; with human fibroblast cells (setting [1]), 43.9 µM; with human fibroblast cells (setting [2]) it was 94.9 µM.
In turn, `C=CCC[C@@H](C[C@@H]1OC(=O)[C@H]1CCCCCC)OC(=O)[C@H](Cc1ccccc1)NC=O` registered a Ki at FAS TE of 0.22 µM. Further, the IC50 in the assay on MB-MDA-231 cells (48 h) is 24.5 µM; in the assay on human fibroblast cells (setting [1]), 73.6 µM; with human fibroblast cells (setting [2]) it was 65 µM.
In the case of `CCCCCCCCCCC[C@@H](O)C[C@@H]1OC(=O)[C@H]1CCCCCC`, the Ki on FAS TE was 0.48 µM. Also, the figures for the IC50 with MB-MDA-231 cells (48 h), with human fibroblast cells (setting [1]) and with human fibroblast cells (setting [2]) were 26.8 µM, 40.4 µM and 29.3 µM, respectively.
Consider `CCCCCCCCCCC[C@H](C[C@@H]1OC(=O)[C@H]1CCCCCC)OC(=O)CNC=O`, for which the figures for the IC50 in the assay with MB-MDA-231 cells (48 h), in the assay on human fibroblast cells (setting [1]) and in the assay on human fibroblast cells (setting [2]) were 11.7 µM, 46.8 µM and 40.5 µM, respectively.
Take `CCCCCC[C@@H]1C(=O)O[C@H]1C[C@H](CC/C=C/COCCOCCOCC(=O)OCc1ccccc1)OC(=O)[C@H](CC(C)C)NC=O`: the Ki at FAS TE was 0.23 µM. The IC50 is 47.3 µM in the assay with MB-MDA-231 cells (48 h), 70.4 µM with human fibroblast cells (setting [1]) and more than 100 µM in the assay with human fibroblast cells (setting [2]).
The molecule `CCCCCCC/C=C/CC[C@@H](C[C@@H]1OC(=O)[C@H]1CCCCCC)OC(=O)[C@H](Cc1ccccc1)NC=O` displayed an inhibition constant Ki on FAS TE of 0.15 µM. Moreover, the IC50 is more than 100 µM in the assay on MB-MDA-231 cells (48 h), 24.9 µM in the assay on human fibroblast cells (setting [1]) and 35.9 µM with human fibroblast cells (setting [2]).
On to `CCCCCCCCCCC[C@H](C[C@@H]1OC(=O)[C@H]1CC)OC(=O)CNC=O`, for which the affinity on FAS TE corresponds to a Ki of 0.23 µM. The IC50 with MB-MDA-231 cells (48 h) was 1.3 µM; in the assay with human fibroblast cells (setting [2]), 9.7 µM.
`CCCCCC[C@@H]1C(=O)O[C@H]1C[C@H](CC/C=C/c1ccc(F)cc1)OC(=O)[C@H](CC(C)C)NC=O`: the affinity at FAS TE, expressed as Ki, was 0.15 µM. In addition, the concentration for half-maximal inhibition (IC50) with MB-MDA-231 cells (48 h) was found to be 14.1 µM; in the assay with human fibroblast cells (setting [1]), 32.9 µM; in the assay on human fibroblast cells (setting [2]) it was 49.9 µM.
`C/C=C/CC[C@@H](C[C@@H]1OC(=O)[C@H]1CCCCCC)OC(=O)[C@H](Cc1ccccc1)NC=O` yielded a Ki at FAS TE of 0.23 µM. Further, the IC50 with MB-MDA-231 cells (48 h) was 38.3 µM; in the assay with human fibroblast cells (setting [1]), 61.2 µM; with human fibroblast cells (setting [2]), 52.5 µM.
As to `CCCCCC[C@@H]1C(=O)O[C@H]1C[C@H](CCCCC)OC(=O)[C@@H](NC=O)C(C)C`, in the assay with human fibroblast cells (setting [2]), the 50% inhibitory concentration (IC50) was more than 100 µM.
In the case of `C/C=C/CC[C@H](C[C@@H]1OC(=O)[C@H]1CCCCCC)OC(=O)[C@@H](NC=O)C(C)C`, the half-inhibitory concentration (IC50) is 101 µM in the assay with human fibroblast cells (setting [1]) and more than 100 µM in the assay with human fibroblast cells (setting [2]).
The molecule `C=CCC[C@H](CC1OC(=O)[C@H]1CCCCCC)OC(=O)CNC=O` (some centres unmarked) [listing 2 of 2 here] came in with a Ki on FAS TE of 0.06 µM. Further, the IC50 in the assay with MB-MDA-231 cells is 54 µM; in the assay with human fibroblast cells (setting [3]), more than 100 µM; with human fibroblast cells (setting [4]), more than 100 µM.
At FAS TE, `CCCCCCCCCCC[C@H](CC1OC(=O)[C@H]1CCCC)OC(=O)CNC=O` (some centres unmarked) displayed a Ki of 0.16 µM. The figures for the IC50 in the assay with MB-MDA-231 cells (48 h), with human fibroblast cells (setting [1]) and in the assay with human fibroblast cells (setting [2]) were 35.7 µM, 31.1 µM and 43.2 µM, respectively.
For the molecule `CCCCCC[C@@H]1C(=O)OC1C[C@@H](C)OC(=O)CNC=O` (some centres unmarked), the IC50 in the assay on MB-MDA-231 cells (48 h), with human fibroblast cells (setting [1]) and with human fibroblast cells (setting [2]) was more than 100 µM in each case.
In turn, `CCCCCC[C@@H]1C(=O)O[C@H]1C[C@@H](C)OC(=O)CNC=O` showed a Ki at FAS TE of 0.09 µM.
Regarding `CCCCCC[C@@H]1C(=O)OC1C[C@@H](COS(=O)(=O)c1ccc(C)cc1)OC(=O)CNC=O` (some centres unmarked), the IC50 in the assay with MB-MDA-231 cells (48 h), with human fibroblast cells (setting [1]) and in the assay on human fibroblast cells (setting [2]) was more than 100 µM in each case.
On FAS TE, `CCCCCC[C@@H]1C(=O)O[C@H]1C[C@@H](COS(=O)(=O)c1ccc(C)cc1)OC(=O)CNC=O` came in with an inhibition constant Ki of 0.1 µM.
For `CCCCCCCCCCC[C@@H](CC1OC(=O)[C@H]1CC)OC(=O)CNC=O` (some centres unmarked), the IC50 with MB-MDA-231 cells (48 h) was 88.4 µM; in the assay on human fibroblast cells (setting [1]) it was more than 100 µM; in the assay with human fibroblast cells (setting [2]) it was more than 100 µM.
`CCCCCCCCCCC[C@@H](C[C@@H]1OC(=O)[C@H]1CC)OC(=O)CNC=O` registered an inhibition constant (Ki) on FAS TE of 0.16 µM.
`C/C=C/CC[C@H](CC1OC(=O)[C@H]1CCCCCC)OC(=O)CNC=O` (some centres unmarked): the IC50 in the assay on MB-MDA-231 cells (48 h) was found to be 57.3 µM; with human fibroblast cells (setting [1]), 39.9 µM; in the assay with human fibroblast cells (setting [2]), 37 µM.
With `CCCCCCCCCCCCC[C@H](CC1OC(=O)[C@@H]1CCCCCC)OC(=O)CNC=O` (some centres unmarked), the half-maximal inhibitory concentration (IC50) in the assay on MB-MDA-231 cells (48 h), in the assay on human fibroblast cells (setting [1]) and in the assay with human fibroblast cells (setting [2]) was more than 100 µM each time.
Regarding `CCCCCCCCCCCCC[C@H](C[C@@H]1OC(=O)[C@@H]1CCCCCC)OC(=O)CNC=O`, at FAS TE, the Ki was determined as 0.04 µM.
`CCCCCCCCCCC[C@@H](C[C@@H]1OC(=O)[C@H]1CCCCCC)OC(=O)c1ccccc1` [drawing 150]: the half-inhibitory concentration (IC50) with MB-MDA-231 cells, with human fibroblast cells (setting [3]) and in the assay with human fibroblast cells (setting [4]) was more than 100 µM each time.
Turning to `CCCCCCCCCCC[C@@H](C[C@@H]1OC(=O)[C@H]1CCCCCC)OC(=O)CN(C)C` [drawing 152], the half-inhibitory concentration (IC50) with MB-MDA-231 cells was found to be 26.9 µM; in the assay with human fibroblast cells (setting [3]) it was 37.3 µM; in the assay on human fibroblast cells (setting [4]), 49.3 µM.
`CCCCCCCCCCC[C@@H](C[C@@H]1OC(=O)[C@H]1CCCCCC)OC(=O)c1ccccc1` [drawing 169]: the IC50 with MB-MDA-231 cells (48 h), in the assay with human fibroblast cells (setting [1]) and with human fibroblast cells (setting [2]) was more than 100 µM throughout.
Take `CCCCCCCCCCC[C@@H](CC1OC(=O)[C@H]1CCCCCC)OC(=O)CN(C)C` (some centres unmarked) [drawing 171]: the values for the IC50 in the assay on MB-MDA-231 cells (48 h), with human fibroblast cells (setting [3]) and in the assay with human fibroblast cells (setting [2]) were 52.1 µM, 105 µM and 75.6 µM, respectively.
